Target: T1, cytosolic phosphoenolpyruvate carboxykinase (PCK1) (Rattus norvegicus, UniProt P07379)
T1 sequence (P07379 1-622): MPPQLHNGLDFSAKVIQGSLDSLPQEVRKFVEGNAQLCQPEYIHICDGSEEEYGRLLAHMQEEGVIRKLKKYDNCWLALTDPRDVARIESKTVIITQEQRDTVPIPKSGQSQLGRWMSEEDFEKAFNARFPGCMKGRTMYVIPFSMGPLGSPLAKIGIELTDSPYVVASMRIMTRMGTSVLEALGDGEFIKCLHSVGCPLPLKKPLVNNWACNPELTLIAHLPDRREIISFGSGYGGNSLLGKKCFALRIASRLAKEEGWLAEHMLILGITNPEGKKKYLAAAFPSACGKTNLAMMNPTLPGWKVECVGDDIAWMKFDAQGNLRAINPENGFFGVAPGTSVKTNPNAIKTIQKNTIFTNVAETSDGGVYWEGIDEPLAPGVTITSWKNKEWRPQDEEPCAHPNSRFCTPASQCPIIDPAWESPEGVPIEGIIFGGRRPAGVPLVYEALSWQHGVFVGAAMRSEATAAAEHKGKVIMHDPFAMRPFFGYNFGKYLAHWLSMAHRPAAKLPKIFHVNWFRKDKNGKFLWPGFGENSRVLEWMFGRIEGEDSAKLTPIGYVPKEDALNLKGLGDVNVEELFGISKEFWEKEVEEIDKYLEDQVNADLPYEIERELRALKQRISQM
Assay: STD NMR and DEEP-STD NMR
Type: binding

SMILES: CC(C)(COP(=O)(O)OP(=O)(O)OC[C@H]1O[C@@H](n2cnc3c(N)ncnc32)[C@H](O)[C@@H]1OP(=O)(O)O)[C@@H](O)C(=O)NCCC(=O)NCCS [coenzyme A]
- STD NMR and DEEP-STD NMR: STD NMR experiments showed clear STD signals for both, acetyl-CoA and CoA (see Fig. S4), confirming that they bind to PCK1

— publication PMC7948413 (The Journal of Biological Chemistry, 2021)
